Results from US6303630A, “Diarylsulfone non-nucleoside reverse transcriptase inhibitors of human immunodeficiency virus” (University of the Sciences in Philadelphia, priority 2000, dated 2001).
pEC50, pIC50: −log10 of the molar value. Where two headings read alike, the source gives them in different places.

Tests used:
HIV-1 = assay: NCI in vitro anti-HIV drug screen: XTT-formazan assay, protection of T4 lymphocytes (CEM) from HIV-1 cytopathic effects; assay type: cell-based, human immunodeficiency virus (HIV-1); conditions: for pEC50: 144 h, HIV-1 infected CEM cells, 6 days, XTT, approximate values, read-out: EC50 (50% effective concentration against HIV cytopathic effects); for inhibition at 20 µM / activity at 20 µM: dose 2.00 × 10^-5 Molar; for inhibition at 2 µM / activity at 2 µM: dose 2.00 × 10^-6 Molar; for inhibition at 0.2 µM / activity at 0.2 µM: dose 2.00 × 10^-7 Molar; for TI50 (IC/EC), Therapeutic Index: IC50/EC50; for inhibition at 0.02 µM / activity at 0.02 µM: dose 2.00 × 10^-8 Molar; for inhibition at 6.32 µM / activity at 6.32 µM: dose 6.32 × 10^-6 Molar; for inhibition at 0.633 µM / activity at 0.633 µM: dose 6.33 × 10^-7 Molar; for inhibition at 0.0634 µM: read-out: Percent of Protection, dose 6.34 × 10^-8 Molar; for inhibition at 0.00635 µM: read-out: Percent of Protection, dose 6.35 × 10^-9 Molar; for activity at 0.0634 µM: dose 6.34 × 10^-8 Molar; for activity at 0.00635 µM: dose 6.35 × 10^-9 Molar
Protocol: Compounds of the present invention were evaluated for anti-HIV efficacy by the National Cancer Institute's (NCI) In Vitro Anti AIDS Drug Discovery Program.
(§1) The NCI procedure is fully described, for example, in a bulletin provided by the National Institutes of Health, National Cancer Institute, Bethesda, Md. 20892, all of which is incorporated herein by reference. As related in the NCI bulletin, the procedure is based on O. W. Weislow et al., "New soluble-formazan assay for HIV-1 cytopathic effects: application to high flux screening of synthetic and natural products for AIDS-antiviral activity", J. Natl. Cancer Inst. 81:577-586 (1989), and is used to test for compounds active against human immunodeficiency virus (HIV), and is designed to detect compounds active at any stage of the virus reproductive cycle. As further related in the NCI bulletin, the assay includes killing of T4 lymphocytes by HIV. Amounts of HIV are added to cells, with a minimum of two cycles of virus reproduction found to be necessary to obtain the required cell killing. Compounds that interact with virions, cells, or virus gene-products to interfere with viral activities will protect cells from cytolysis. All were compared with a positive (e.g., AZT-treated) control evaluation at the same time under identical conditions. The procedure is set forth as follows:
(§2) A candidate compound is first dissolved in a suitable solvent, preferably dimethyl sulfoxide, then diluted 1:100 in cell culture medium before preparing serial half-log10 dilutions. T4 lymphocytes (CEM cell line) are then added and after a brief interval HIV-1 is added, resulting in a 1:200 final dilution of the compound. Uninfected cells with the compound serve as a toxicity control, and infected and uninfected without the compound serve as basic controls. Cultures are then incubated at 37° in a 5% carbon dioxide atmosphere for 6 days. The tetrazolium salt, XTT, is added to all wells, and cultures are incubated to allow formazan color development by viable cells. Individual wells are analyzed spectrophotometrically to quantitate formazan product, and in addition are viewed microscopically for detection of viable cells and confirmation of protective activity. Drug-treated virus-infected cells are compared with drug-treated noninfected cells and with other appropriate controls (untreated infected and untreated noninfected cells, drug-containing wells without cells, etc.) on the same plate. Data are reviewed in comparison with other tests performed at the same time and a determination as to activity is made.

[1] = tested on: T4 lymphocytes (CEM cell line); assay: Cell growth / toxicity control in uninfected T4 lymphocytes (CEM), XTT-formazan; assay type: cell-based; conditions: Homo sapiens, CCRF-CEM; for pIC50: 144 h, approximate values; for activity at 20 µM: dose 2.00 × 10^-5 Molar; for activity at 2 µM: dose 2.00 × 10^-6 Molar; for activity at 0.2 µM: dose 2.00 × 10^-7 Molar; for activity at 0.02 µM: dose 2.00 × 10^-8 Molar; for activity at 6.32 µM: dose 6.32 × 10^-6 Molar; for activity at 0.633 µM: dose 6.33 × 10^-7 Molar; for activity at 0.0634 µM: dose 6.34 × 10^-8 Molar; for activity at 0.00635 µM: dose 6.35 × 10^-9 Molar
Text: as §1, §2

[2] = Human immunodeficiency virus 1, CCRF-CEM
[3] = Human immunodeficiency virus 1, CCRF-CEM, read-out: Percent of Protection
[4] = Human immunodeficiency virus 1, Lymphocyte, read-out: Percent of Control, Infected
[5] = read-out: Percent of Control, Uninfected
[6] = read-out: IC50 (50% inhibitory concentration for cell growth), uninfected CEM cells, 6 days, XTT

SMILES: O=[N+]([O-])c1ccccc1S(=O)(=O)c1cccc2c1NCCC2 [Compound 46, 8-(2-nitrophenylsulfonyl)-1,2,3,4-tetrahydroquinoline]
- pEC50 (HIV-1; [2]): 5.88
- inhibition at 200 µM (HIV-1; Human immunodeficiency virus 1, CCRF-CEM, dose 2.00 × 10^-4 Molar, read-out: Percent of Protection): -0.28%
- inhibition at 20 µM (HIV-1; [3]): 76.4%
- inhibition at 2 µM (HIV-1; [3]): 69.4%
- inhibition at 0.2 µM (HIV-1; [3]): 6.11%
- inhibition at 63.2 µM (HIV-1; Human immunodeficiency virus 1, CCRF-CEM, dose 6.32 × 10^-5 Molar, read-out: Percent of Protection): 33.6%
- inhibition at 6.33 µM (HIV-1; Human immunodeficiency virus 1, CCRF-CEM, dose 6.33 × 10^-6 Molar, read-out: Percent of Protection): 89.1%
- inhibition at 0.634 µM (HIV-1; Human immunodeficiency virus 1, CCRF-CEM, dose 6.34 × 10^-7 Molar, read-out: Percent of Protection): 16.3%
- inhibition at 0.0635 µM (HIV-1; Human immunodeficiency virus 1, CCRF-CEM, dose 6.35 × 10^-8 Molar, read-out: Percent of Protection): -1.64%
- activity at 200 µM (HIV-1; Human immunodeficiency virus 1, Lymphocyte, dose 2.00 × 10^-4 Molar, read-out: Percent of Control, Infected): 1.73%
- activity at 20 µM (HIV-1; [4]): 76.8%
- activity at 2 µM (HIV-1; [4]): 70%
- activity at 0.2 µM (HIV-1; [4]): 7.99%
- activity at 63.2 µM (HIV-1; Human immunodeficiency virus 1, Lymphocyte, dose 6.32 × 10^-5 Molar, read-out: Percent of Control, Infected): 35%
- activity at 6.33 µM (HIV-1; Human immunodeficiency virus 1, Lymphocyte, dose 6.33 × 10^-6 Molar, read-out: Percent of Control, Infected): 89.3%
- activity at 0.634 µM (HIV-1; Human immunodeficiency virus 1, Lymphocyte, dose 6.34 × 10^-7 Molar, read-out: Percent of Control, Infected): 17.9%
- activity at 0.0635 µM (HIV-1; Human immunodeficiency virus 1, Lymphocyte, dose 6.35 × 10^-8 Molar, read-out: Percent of Control, Infected): 0.39%
- TI50 (IC/EC), Therapeutic Index (HIV-1): 3.78 × 10^+1
- pIC50 ([1]; uninfected CEM cells, 6 days, XTT, read-out: IC50 (50% inhibitory concentration for cell growth)): 4.30
- activity at 200 µM ([1]; dose 2.00 × 10^-4 Molar, read-out: Percent of Control, Uninfected): 1.77%
- activity at 20 µM [1, 5]: 95.8%
- activity at 2 µM [1, 5]: 95.4%
- activity at 0.2 µM [1, 5]: 98.9%
- activity at 63.2 µM ([1]; dose 6.32 × 10^-5 Molar, read-out: Percent of Control, Uninfected): 38.1%
- activity at 6.33 µM ([1]; dose 6.33 × 10^-6 Molar, read-out: Percent of Control, Uninfected): 94%
- activity at 0.634 µM ([1]; dose 6.34 × 10^-7 Molar, read-out: Percent of Control, Uninfected): 100%
- activity at 0.0635 µM ([1]; dose 6.35 × 10^-8 Molar, read-out: Percent of Control, Uninfected): 98.9%

SMILES: O=[N+]([O-])c1ccccc1S(=O)(=O)c1cc(Cl)cc2c1NCCC2 [Compound 47, 8-(2-nitrophenylsulfonyl)6chloro-1,2,3,4-tetrahydroquinoline]
- pEC50 (HIV-1; [2]): 6.51
- inhibition at 20 µM (HIV-1; [3]): 86.2%
- inhibition at 2 µM (HIV-1; [3]): 88.8%
- inhibition at 0.2 µM (HIV-1; [3]): 25.3%
- inhibition at 0.02 µM (HIV-1; [3]): 6%
- inhibition at 6.32 µM (HIV-1; [3]): 102%
- inhibition at 0.633 µM (HIV-1; [3]): 90%
- inhibition at 0.0634 µM (HIV-1; [2]): 8.87%
- inhibition at 0.00635 µM (HIV-1; [2]): 3%
- activity at 20 µM (HIV-1; [4]): 86.2%
- activity at 2 µM (HIV-1; [4]): 88.8%
- activity at 0.2 µM (HIV-1; [4]): 25.3%
- activity at 0.02 µM (HIV-1; [4]): 6%
- activity at 6.32 µM (HIV-1; [4]): 102%
- activity at 0.633 µM (HIV-1; [4]): 90%
- activity at 0.0634 µM (HIV-1; [4]): 8.87%
- activity at 0.00635 µM (HIV-1; [4]): 3%
- TI50 (IC/EC), Therapeutic Index (HIV-1): 6.41 × 10^+1
- pIC50 [1, 6]: < 4.70
- activity at 20 µM [1, 5]: 96.1%
- activity at 2 µM [1, 5]: 92.6%
- activity at 0.2 µM [1, 5]: 87.1%
- activity at 0.02 µM [1, 5]: 91.2%
- activity at 6.32 µM [1, 5]: 104%
- activity at 0.633 µM [1, 5]: 86.3%
- activity at 0.0634 µM [1, 5]: 92%
- activity at 0.00635 µM [1, 5]: 91.2%

SMILES: Cc1cc2c(c(S(=O)(=O)c3ccccc3[N+](=O)[O-])c1)NCCC2 [Compound 50, 8-(2-nitrophenyIsulfonyl)6-methyl-1,2,3,4-tetrahydroquinoline]
- pEC50 (HIV-1; [2]): 7.12
- inhibition at 20 µM (HIV-1; [3]): 97.4%
- inhibition at 2 µM (HIV-1; [3]): 107%
- inhibition at 0.2 µM (HIV-1; [3]): 86.3%
- inhibition at 0.02 µM (HIV-1; [3]): -2.76%
- inhibition at 6.32 µM (HIV-1; [3]): 109%
- inhibition at 0.633 µM (HIV-1; [3]): 84.2%
- inhibition at 0.0634 µM (HIV-1; [2]): 44.1%
- inhibition at 0.00635 µM (HIV-1; [2]): -3.62%
- activity at 20 µM (HIV-1; [4]): 97.6%
- activity at 2 µM (HIV-1; [4]): 106%
- activity at 0.2 µM (HIV-1; [4]): 87.6%
- activity at 0.02 µM (HIV-1; [4]): 6.49%
- activity at 6.32 µM (HIV-1; [4]): 108%
- activity at 0.633 µM (HIV-1; [4]): 85.7%
- activity at 0.0634 µM (HIV-1; [4]): 49.1%
- activity at 0.00635 µM (HIV-1; [4]): 5.71%
- TI50 (IC/EC), Therapeutic Index (HIV-1): > 2.66 × 10^-2
- pIC50 [1, 6]: < 4.70
- activity at 20 µM [1, 5]: 101%
- activity at 2 µM [1, 5]: 91%
- activity at 0.2 µM [1, 5]: 87.1%
- activity at 0.02 µM [1, 5]: 88.4%
- activity at 6.32 µM [1, 5]: 91.2%
- activity at 0.633 µM [1, 5]: 89.3%
- activity at 0.0634 µM [1, 5]: 90.5%
- activity at 0.00635 µM [1, 5]: 90.2%
